Laboratory results published in patent US20130142819A1, “LEISHMANICIDAL FORMULATION AND ITS USE” (priority 2010, published 2013).

Columns and labels:
Assay in all cases: Leishmanicidal activity, MTT viability assay, promastigotes
Assay type in all cases: cell-based
Details in all cases: 50 μg/mL; average ± standard deviation
[1] = test system: stationary phase promastigotes of L. major
Procedure: (§1) In a cell culture plate of 96 wells (Nunc, Nunclon®), 4×10^5 promastigote and amastigote-like forms of species Leishmania amazonensis, L. major and L. chagasi were incubated with 25 to 200 μg/mL of the aqueous extract of the fungus in RPMI-PR medium for a final volume of 100 μL, for 24 h at 25° C. Then it was added 50 uL of MTT reagent (Thiazoly Blue Tetrazolium Bromide 98%; in stock concentration of 5 mg/mL) and the plate was incubated for 4 hours at 25° C. The cells were analyzed on a microscope to verify the formation of formazan crystals. Shortly after it was added 60 μL of a SDS 10%/HCL 0.1 M solution to solubilize formazan crystals and the plate was incubated for 18 h. The absorbance readings were then performed using a spectrophotometer at a wavelength of 570 nanometers (nm) (see FIGS. 1 and 2; Table 1 and 2).
(§2) Through the absorbance readings collected in experiments, Tables 1 and 2 were generated to represent the percentage of leishmanicidal activity of aqueous extract against the three Leishmania species tested in two manners. The calculation of the percentage of death of the parasites was based in the formula below, using the absorbance readings: […]
(§3) The experiment was conducted by the cellular viability protocol by impregnating the MTT reagent and the concentration of 50 μg/mL of the aqueous extract of the fungus and the purified fractions were used. […]

[2] = test system: stationary phase promastigotes of L. chagasi
Procedure: as §1, §2, §3

[3] = test system: stationary phase promastigotes of L. amazonensis
Procedure: as §1, §2, §3

Question: With `C[C@@H]1[C@H](O)[C@@H](C)/C=C/C=C/C=C/C=C/C=C/C=C/C=C/[C@H](O[C@@H]2O[C@H](C)[C@@H](O)[C@H](N)[C@@H]2O)C[C@@H]2O[C@](O)(C[C@@H](O)C[C@@H](O)[C@H](O)CC[C@@H](O)C[C@@H](O)CC(=O)O[C@H]1C)C[C@H](O)[C@H]2C(=O)O` [Amphotericin B, amphotericin B] as the compound, how does the “Average percentage of death of stationary phase promastigote forms, L. major” value [1] read?
Answer: 42.51 ± 2.00%

Question: What about the “Average percentage of death of stationary phase promastigote forms, L. chagasi” value [2] of the same compound?
Answer: 35.12 ± 2.61%

Question: What about the “Average percentage of death of stationary phase promastigote forms, L. amazonensis” value [3] of the same compound?
Answer: 40.06 ± 1.17%
